# Reference: patent US7317000B2, “Glucose-dependent insulins” (Novo Nordisk A/S, priority 2001, dated 2008)
# Molecular target: solubilized human insulin receptor (Homo sapiens, UniProt P06213)
# Experiment: Insulin receptor binding by competition with 125I-TyrA14 human insulin (scintillation counting)
# Conditions: antibody-captured solubilized receptor on Scintiplates
# Sequence of solubilized human insulin receptor (P06213 28-758 limits assumed): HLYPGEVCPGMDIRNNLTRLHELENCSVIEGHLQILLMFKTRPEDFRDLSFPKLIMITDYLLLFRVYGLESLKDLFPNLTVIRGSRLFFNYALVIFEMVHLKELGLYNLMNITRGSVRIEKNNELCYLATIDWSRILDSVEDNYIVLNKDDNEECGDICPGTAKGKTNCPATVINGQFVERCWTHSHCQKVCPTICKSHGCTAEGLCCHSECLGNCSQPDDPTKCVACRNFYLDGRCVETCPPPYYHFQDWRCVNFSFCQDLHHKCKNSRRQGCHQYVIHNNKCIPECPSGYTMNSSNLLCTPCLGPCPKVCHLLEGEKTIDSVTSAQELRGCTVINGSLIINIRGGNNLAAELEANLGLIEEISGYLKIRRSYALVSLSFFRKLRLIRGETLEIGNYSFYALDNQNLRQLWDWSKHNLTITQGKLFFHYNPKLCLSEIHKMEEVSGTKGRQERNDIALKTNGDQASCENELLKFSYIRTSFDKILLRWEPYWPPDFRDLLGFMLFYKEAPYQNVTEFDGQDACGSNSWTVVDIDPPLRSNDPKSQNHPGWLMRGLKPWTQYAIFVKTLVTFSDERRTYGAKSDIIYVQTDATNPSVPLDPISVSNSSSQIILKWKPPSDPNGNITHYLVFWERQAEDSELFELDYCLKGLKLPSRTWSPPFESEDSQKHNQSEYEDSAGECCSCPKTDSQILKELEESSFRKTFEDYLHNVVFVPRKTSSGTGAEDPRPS
# Sequence of solubilized human insulin receptor (P06213 763-1382 partner limits assumed): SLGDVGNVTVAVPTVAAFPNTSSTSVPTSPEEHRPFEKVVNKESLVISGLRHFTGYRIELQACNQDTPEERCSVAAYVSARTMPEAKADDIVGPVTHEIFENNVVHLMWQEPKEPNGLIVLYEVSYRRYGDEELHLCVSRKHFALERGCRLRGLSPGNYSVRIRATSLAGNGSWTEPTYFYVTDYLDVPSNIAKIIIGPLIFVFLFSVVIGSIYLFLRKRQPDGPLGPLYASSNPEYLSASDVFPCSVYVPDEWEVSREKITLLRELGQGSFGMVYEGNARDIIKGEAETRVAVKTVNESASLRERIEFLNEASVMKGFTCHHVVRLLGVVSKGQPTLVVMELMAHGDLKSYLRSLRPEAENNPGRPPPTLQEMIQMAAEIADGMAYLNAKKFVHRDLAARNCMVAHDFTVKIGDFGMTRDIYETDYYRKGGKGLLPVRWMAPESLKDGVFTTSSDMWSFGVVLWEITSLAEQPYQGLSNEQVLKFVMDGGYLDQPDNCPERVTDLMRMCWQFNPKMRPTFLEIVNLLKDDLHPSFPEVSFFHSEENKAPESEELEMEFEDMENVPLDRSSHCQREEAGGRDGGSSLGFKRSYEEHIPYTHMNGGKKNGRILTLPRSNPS
row,Kd,Substance
1,0.015 nM,"Lys^B29(N^ε-(4-carboxyphenylalanine-N-methyl-glucamide), N^α-(4-borono-phenylsulfonyl)) des(B30), human insulin [Compound 23]"
2,0.016 nM,"Lys^B29-(N^ε(γ-L-glutamyl-α-D-glucamide, N^α-(3-borono-5-nitro-benzoyl)) des(B30) human insulin [Compound 10]"
